Measurements: ChEMBL document CHEMBL1201862, “PubChem BioAssay data set” (2004)
Active and inactive are the calls of the source.

Legend:
[1] = NIH-3T3 fibroblast cytotoxicity, dose response, cytotoxicity control, cell-based, fluorescence, Alamar Blue, secondary assay (AID 2327); type: functional;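 further: NIH-3T3 mouse fibroblasts cultured with fluconazole at 8 µg/mL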
[2] = C. albicans growth with fluconazole, confirmation, fluorescence, retest (AID 2467); type: functional, cell-based
BJ [3] = test: cells; type: functional, cell-based; conditions: Homo sapiens
BJ [4] = test: cytotoxicity toward BJ-TERT fibroblasts, dose response, cell-based, RAS-independent, luminescence (AID 1933); type: functional; conditions: Homo sapiens
BJ [5] = test: cytotoxicity toward BJ-TERT-LT-ST fibroblasts, dose response, cell-based, RAS-independent, luminescence (AID 1935); type: functional; conditions: Homo sapiens;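 further: BJ fibroblasts immortalized with TERT plus LT and ST oncogenes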
[6] = cytotoxicity toward DRD oncogenic fibroblasts, dose response, cell-based, non-viral oncogenic, luminescence (AID 1934); type: functional; conditions: Homo sapiens
[7] = biological target: T1, Replicative DNA helicase DnaB (Mycobacterium tuberculosis, UniProt P9WMR3); test: DnaB intein splicing inhibitors, dose response, biochemical, cell-free fluorescence (AID 449749); type: functional
T1 sequence (P9WMR3 whole entry): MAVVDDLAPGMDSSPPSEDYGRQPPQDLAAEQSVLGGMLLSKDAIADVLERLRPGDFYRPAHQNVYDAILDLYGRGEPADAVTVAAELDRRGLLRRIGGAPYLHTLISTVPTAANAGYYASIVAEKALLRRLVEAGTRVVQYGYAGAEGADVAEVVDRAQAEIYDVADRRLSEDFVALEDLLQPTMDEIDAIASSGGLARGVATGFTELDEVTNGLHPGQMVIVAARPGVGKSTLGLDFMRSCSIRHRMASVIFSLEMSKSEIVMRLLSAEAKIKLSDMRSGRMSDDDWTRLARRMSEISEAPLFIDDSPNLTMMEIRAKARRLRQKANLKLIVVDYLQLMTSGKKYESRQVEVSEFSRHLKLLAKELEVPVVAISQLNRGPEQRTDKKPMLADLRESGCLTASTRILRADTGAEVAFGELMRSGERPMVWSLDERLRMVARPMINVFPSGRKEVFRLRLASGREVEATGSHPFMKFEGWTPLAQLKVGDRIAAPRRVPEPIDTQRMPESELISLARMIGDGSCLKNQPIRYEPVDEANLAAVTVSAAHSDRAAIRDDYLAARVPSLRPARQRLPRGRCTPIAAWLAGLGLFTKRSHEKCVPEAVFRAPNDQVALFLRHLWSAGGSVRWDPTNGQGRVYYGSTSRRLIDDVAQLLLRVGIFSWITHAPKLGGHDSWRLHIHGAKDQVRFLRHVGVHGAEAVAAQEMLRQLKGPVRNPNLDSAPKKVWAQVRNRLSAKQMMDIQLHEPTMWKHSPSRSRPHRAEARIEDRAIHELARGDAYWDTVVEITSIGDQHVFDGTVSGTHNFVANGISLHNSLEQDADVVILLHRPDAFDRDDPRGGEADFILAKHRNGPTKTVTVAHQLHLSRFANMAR

[8] = biological target: T2, Heat shock factor protein 1 (Mus musculus, UniProt P38532); test: inhibition of MG132-induced HSE-luciferase signal, confirmation, cell-based, NIH3T3, luminescence, dose retest (AID 2382); type: functional;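 further: NIH3T3 fibroblasts with HSF1-driven luciferase reporter stressed by proteasome inhibitor MG132; luminescence from HSF1-driven luciferase expression after 8 hours of MG132 stress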
T2 sequence (P38532 whole entry): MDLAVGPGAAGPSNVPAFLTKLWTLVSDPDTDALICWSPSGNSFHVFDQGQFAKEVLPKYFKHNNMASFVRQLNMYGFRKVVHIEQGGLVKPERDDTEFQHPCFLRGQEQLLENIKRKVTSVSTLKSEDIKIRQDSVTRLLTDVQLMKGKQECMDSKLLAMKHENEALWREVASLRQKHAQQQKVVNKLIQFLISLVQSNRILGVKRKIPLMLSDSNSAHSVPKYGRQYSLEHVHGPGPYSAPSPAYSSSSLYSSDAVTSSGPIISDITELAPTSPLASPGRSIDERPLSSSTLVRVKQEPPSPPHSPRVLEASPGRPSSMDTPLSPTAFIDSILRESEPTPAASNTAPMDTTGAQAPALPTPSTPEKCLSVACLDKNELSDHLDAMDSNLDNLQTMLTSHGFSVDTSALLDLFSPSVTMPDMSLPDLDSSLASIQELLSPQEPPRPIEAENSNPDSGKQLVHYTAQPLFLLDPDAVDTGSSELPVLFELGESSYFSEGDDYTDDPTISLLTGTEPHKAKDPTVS

Genome polyprotein = Genome polyprotein (dengue virus type 2, UniProt P29990); test: Dengue-2 NS5 methyltransferase inhibitors, primary screen, biochemical, confirmation dose response (AID 588689); type: functional
Genome polyprotein, sequence (P29990 2492-3391 limits assumed): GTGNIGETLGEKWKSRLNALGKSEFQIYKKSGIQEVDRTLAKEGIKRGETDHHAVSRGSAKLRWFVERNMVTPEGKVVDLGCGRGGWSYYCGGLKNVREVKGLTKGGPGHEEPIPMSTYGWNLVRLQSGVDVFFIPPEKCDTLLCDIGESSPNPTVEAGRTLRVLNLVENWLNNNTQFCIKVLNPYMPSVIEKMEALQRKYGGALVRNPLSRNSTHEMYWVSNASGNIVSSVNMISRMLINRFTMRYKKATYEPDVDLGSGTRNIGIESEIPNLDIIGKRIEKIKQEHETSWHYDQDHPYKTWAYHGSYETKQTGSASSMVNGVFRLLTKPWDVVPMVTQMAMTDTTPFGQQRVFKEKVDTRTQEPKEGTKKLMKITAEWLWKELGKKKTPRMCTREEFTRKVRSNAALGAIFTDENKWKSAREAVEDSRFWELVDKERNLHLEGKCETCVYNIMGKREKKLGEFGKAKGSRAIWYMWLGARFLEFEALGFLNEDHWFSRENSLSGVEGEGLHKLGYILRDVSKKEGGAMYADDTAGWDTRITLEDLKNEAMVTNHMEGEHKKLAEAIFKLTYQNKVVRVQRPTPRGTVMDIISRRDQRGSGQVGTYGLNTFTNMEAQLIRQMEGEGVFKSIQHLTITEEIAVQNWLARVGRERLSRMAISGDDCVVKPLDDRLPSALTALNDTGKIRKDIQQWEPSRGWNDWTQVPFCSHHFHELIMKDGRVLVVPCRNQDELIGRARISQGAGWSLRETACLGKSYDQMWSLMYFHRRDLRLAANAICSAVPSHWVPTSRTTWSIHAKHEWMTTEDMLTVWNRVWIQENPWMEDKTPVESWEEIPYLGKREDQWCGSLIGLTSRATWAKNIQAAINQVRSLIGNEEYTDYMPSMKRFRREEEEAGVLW

Protein RecA = biological target: T3, Protein RecA (Mycobacterium tuberculosis, UniProt P9WHJ3); test: Fluorescence Cell-Free Homogeneous Dose Retest to Identify Inhibitors of RecA-Intein Splicing Activity. [Related pubchem assays (depositor defined):AID2097, AID2223, AID489010, AID492950]; type: functional
T3 sequence (P9WHJ3 whole entry): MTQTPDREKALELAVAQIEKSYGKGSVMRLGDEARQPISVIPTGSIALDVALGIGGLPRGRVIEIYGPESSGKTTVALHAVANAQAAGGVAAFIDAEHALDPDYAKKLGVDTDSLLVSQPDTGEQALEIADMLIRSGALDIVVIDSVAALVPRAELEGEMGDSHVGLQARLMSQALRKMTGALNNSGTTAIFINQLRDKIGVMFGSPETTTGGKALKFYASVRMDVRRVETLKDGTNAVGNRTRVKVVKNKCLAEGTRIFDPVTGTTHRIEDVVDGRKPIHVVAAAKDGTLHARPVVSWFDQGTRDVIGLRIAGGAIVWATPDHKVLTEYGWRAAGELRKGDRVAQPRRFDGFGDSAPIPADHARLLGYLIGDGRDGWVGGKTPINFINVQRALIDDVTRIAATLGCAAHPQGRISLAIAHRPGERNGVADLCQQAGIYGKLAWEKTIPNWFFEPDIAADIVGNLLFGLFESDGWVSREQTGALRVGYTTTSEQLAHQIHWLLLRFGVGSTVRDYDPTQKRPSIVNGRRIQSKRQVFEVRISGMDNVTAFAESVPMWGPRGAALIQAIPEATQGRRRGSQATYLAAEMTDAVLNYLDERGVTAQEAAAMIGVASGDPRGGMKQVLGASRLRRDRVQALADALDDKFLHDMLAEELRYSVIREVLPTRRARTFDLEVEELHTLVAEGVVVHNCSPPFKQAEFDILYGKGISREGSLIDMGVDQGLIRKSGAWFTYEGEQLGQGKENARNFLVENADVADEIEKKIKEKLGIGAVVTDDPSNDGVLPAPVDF

[9] = biological target: T4, Calpain-2 catalytic subunit (Sus scrofa, UniProt P43367); test: pig calpain II inhibitor potency, dose response, biochemical, fluorogenic peptide substrate (AID 1420); type: functional
T4 sequence (P43367 whole entry): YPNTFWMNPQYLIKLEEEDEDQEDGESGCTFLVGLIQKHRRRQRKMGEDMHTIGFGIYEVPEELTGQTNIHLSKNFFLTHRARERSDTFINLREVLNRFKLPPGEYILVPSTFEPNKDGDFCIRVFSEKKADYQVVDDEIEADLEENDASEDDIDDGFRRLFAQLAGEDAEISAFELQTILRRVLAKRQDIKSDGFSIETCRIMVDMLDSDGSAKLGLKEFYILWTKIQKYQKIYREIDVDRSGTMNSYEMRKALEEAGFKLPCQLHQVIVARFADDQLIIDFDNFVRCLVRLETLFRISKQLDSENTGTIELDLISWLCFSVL

Coagulation factor XII = biological target: T5, Coagulation factor XII (Homo sapiens, UniProt P00748); type: functional;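 further: activated factor XIIa alpha cleaving a fluorogenic AMC peptide substrate; inhibitor potency from loss of enzyme activity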
T5 sequence (P00748 whole entry): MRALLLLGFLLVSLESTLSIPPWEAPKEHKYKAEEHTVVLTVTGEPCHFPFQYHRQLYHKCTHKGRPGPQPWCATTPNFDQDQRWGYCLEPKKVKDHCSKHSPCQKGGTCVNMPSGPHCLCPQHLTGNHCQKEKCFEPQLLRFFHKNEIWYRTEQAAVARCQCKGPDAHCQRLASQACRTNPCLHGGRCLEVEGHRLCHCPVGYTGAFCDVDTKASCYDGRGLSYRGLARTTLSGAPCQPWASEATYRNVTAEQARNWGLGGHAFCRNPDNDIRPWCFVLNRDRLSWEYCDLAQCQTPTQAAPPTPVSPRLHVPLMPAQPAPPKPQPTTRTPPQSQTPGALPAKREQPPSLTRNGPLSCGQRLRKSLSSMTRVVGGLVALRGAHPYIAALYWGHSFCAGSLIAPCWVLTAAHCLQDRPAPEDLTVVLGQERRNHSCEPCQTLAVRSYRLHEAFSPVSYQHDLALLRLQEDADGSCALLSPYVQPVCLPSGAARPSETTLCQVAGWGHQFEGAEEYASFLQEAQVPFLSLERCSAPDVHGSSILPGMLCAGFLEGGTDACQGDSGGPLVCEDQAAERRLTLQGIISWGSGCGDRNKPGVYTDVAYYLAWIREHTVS

[10] = biological target: T6, Voltage-gated N-type calcium channel alpha-1B subunit/Amyloid beta A4 precursor protein-binding family A member 1 (Homo sapiens, UniProt Q00975+Q02410); type: protein assay
T6 sequence (Q00975 whole entry): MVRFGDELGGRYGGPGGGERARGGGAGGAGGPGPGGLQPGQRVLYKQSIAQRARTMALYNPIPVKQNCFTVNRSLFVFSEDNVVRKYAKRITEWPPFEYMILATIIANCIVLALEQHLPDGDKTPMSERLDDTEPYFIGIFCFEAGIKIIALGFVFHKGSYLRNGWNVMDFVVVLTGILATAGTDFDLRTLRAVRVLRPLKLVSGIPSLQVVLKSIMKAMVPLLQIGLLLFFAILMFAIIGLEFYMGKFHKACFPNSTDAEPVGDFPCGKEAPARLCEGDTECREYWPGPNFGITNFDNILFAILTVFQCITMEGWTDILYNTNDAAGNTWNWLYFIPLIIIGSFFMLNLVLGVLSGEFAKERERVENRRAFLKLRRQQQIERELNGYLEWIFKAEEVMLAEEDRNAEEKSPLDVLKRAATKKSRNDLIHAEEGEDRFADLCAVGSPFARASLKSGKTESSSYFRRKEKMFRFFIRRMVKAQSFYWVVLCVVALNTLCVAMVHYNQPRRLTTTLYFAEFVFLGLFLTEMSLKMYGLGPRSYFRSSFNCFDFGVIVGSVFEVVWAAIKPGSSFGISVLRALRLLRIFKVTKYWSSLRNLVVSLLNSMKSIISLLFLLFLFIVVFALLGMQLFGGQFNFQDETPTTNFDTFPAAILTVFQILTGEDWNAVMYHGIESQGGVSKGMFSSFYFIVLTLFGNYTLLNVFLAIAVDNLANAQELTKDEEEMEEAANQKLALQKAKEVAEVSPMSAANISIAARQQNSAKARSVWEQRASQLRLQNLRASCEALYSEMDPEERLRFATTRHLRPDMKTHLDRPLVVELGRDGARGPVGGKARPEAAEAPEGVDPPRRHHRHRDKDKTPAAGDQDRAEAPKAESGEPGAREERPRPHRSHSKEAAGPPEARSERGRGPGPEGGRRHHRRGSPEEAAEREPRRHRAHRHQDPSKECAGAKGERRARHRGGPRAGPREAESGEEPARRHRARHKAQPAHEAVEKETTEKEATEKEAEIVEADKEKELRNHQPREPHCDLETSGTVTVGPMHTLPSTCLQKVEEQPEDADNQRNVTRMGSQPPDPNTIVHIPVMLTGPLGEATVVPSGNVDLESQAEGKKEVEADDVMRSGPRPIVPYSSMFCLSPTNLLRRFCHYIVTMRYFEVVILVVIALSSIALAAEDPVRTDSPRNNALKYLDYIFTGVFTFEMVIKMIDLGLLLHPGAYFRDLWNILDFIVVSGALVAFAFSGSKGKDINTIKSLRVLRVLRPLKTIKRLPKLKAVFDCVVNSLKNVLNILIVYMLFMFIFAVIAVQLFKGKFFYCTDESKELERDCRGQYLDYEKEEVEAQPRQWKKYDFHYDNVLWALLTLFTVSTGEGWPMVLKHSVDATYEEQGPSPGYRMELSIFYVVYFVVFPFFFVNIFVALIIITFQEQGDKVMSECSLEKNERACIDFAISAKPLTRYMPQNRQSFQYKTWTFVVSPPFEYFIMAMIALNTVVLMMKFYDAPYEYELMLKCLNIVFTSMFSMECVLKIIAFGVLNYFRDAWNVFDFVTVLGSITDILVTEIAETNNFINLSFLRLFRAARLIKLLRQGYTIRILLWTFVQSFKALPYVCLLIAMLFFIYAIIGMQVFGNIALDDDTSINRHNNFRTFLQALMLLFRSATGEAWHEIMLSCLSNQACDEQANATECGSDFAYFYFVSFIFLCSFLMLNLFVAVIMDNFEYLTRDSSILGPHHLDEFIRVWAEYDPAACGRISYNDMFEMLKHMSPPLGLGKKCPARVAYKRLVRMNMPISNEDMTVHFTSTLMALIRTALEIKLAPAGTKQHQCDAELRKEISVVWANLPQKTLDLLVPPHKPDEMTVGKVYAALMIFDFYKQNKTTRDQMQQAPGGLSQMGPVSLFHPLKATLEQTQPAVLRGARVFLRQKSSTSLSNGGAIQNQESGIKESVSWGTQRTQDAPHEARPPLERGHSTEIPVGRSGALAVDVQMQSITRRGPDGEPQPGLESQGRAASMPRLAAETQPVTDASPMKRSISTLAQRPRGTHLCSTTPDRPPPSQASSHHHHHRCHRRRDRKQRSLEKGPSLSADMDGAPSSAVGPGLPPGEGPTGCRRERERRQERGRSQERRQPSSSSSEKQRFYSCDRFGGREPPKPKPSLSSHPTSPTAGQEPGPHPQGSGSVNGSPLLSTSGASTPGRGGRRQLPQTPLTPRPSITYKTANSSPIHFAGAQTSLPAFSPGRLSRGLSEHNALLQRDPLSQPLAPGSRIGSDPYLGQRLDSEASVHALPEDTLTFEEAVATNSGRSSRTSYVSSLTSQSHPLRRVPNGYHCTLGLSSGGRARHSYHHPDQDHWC
T6 sequence (Q02410 whole entry): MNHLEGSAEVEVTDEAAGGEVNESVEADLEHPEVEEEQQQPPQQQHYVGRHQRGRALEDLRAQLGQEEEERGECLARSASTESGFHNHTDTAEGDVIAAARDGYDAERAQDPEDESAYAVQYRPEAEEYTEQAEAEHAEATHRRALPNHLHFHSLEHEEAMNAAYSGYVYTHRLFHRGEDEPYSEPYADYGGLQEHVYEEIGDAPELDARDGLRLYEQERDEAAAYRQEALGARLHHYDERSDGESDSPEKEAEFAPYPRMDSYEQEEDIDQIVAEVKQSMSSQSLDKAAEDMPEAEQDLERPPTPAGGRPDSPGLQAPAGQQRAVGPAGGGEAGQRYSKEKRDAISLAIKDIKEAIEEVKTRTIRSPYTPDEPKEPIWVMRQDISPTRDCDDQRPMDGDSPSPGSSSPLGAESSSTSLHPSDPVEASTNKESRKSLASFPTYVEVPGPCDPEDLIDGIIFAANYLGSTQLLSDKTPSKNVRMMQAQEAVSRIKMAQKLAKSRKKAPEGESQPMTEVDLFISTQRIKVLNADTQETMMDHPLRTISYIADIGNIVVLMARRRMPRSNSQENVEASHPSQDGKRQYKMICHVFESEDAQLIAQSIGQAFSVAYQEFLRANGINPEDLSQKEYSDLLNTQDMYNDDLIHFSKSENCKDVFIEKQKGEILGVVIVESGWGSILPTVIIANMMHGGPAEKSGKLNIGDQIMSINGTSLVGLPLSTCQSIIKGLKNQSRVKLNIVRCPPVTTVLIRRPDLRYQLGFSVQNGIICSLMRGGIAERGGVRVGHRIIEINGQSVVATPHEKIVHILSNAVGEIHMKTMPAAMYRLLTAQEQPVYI

[11] = biological target: T6, Voltage-gated N-type calcium channel alpha-1B subunit/Amyloid beta A4 precursor protein-binding family A member 1; type: protein assay; remark: listed apart in the source
[12] = biological target: T7, Zinc finger protein mex-5 (Caenorhabditis elegans, UniProt Q9XUB2); test: MEX-5/TCR-2 RNA interaction inhibitors, dose response, biochemical, C. elegans, fluorescence polarization (AID 1960)
T7 sequence (Q9XUB2 whole entry): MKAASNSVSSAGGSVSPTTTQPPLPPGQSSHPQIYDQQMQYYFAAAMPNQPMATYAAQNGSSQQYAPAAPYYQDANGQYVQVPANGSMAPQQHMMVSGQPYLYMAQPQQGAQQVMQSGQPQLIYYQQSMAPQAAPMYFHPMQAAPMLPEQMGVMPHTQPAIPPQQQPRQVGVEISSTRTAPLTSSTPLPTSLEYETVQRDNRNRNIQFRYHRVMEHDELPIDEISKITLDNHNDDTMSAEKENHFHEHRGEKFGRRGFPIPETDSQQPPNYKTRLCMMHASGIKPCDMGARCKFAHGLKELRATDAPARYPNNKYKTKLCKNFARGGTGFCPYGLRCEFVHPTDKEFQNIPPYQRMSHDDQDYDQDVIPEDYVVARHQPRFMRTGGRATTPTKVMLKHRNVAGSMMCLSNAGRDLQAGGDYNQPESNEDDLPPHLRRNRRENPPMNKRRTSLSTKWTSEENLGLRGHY

Large T antigen = Large T antigen (Simian virus 40, UniProt P03070); type: functional, Betapolyomavirus macacae;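 further: Confirmatory-stage PubChem screen for compounds that inhibit SV40 T antigen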
Large T antigen, sequence (P03070 whole entry, the tested form may be a part): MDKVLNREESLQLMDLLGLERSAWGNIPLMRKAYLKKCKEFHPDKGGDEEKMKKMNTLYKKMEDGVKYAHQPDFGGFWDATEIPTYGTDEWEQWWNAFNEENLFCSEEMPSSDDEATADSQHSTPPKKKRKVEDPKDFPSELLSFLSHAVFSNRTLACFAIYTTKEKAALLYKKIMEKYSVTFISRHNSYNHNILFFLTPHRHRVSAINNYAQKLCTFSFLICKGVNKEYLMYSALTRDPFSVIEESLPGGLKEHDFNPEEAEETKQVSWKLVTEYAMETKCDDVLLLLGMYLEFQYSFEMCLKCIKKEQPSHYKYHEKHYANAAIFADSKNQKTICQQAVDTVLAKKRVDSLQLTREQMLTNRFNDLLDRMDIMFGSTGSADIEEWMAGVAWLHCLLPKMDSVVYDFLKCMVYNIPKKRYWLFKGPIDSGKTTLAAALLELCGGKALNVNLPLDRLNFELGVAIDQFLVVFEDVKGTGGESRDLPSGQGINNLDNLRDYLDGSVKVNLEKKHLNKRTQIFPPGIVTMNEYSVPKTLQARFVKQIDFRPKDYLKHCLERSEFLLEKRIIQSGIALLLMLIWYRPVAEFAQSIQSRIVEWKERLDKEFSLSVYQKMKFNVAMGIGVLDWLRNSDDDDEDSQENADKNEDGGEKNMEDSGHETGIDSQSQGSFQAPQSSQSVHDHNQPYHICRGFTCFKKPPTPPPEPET

[13] = biological target: T8, RNA-binding protein pos-1 (Caenorhabditis elegans, UniProt G5EF15); test: inhibitors of POS-1/mex-3 RNA binding, dose response, biochemical, fluorescence polarization (AID 1964);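 further: purified POS-1 fused to maltose binding protein made in E. coli; potency of compounds blocking POS-1 binding to fluorescent RNA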
T8 sequence (G5EF15 whole entry): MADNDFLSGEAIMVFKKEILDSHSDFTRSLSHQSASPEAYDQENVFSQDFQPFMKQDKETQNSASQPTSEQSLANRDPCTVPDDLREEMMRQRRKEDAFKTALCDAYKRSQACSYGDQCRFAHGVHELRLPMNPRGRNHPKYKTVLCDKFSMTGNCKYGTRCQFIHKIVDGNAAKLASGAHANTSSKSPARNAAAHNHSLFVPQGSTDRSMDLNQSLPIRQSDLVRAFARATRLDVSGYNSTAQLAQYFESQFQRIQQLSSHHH

CN(C)C(=O)c1cn(-c2ccccc2)nc1-c1cccs1
EC50 [1]: 24 µM (inconclusive) | EC50 [2]: 7.34 µM (active)

CCC(=O)c1ccc(Oc2ccc(C(=O)c3ccc(C)cc3)cc2[N+](=O)[O-])cc1
EC50 (BJ [3]): > 150 µM (not active) | EC50 (BJ [4]): > 150 µM (not active) | EC50 (BJ [5]): > 150 µM (not active) | EC50 [6]: > 150 µM (not active)

Cc1ccc(SCc2n[nH]c3c2C(c2ccc(C)o2)C(C#N)=C(N)O3)cc1 (stereo not given)
AC50 [7]: 61.4 µM (active) | EC50 [8]: > 195 µM (not active) | IC50 (Genome polyprotein): > 100 µM (active) | EC50 (Protein RecA): 7.85 µM (active)

COc1ccc(S(=O)(=O)N2CCCCC2)cc1NC(=O)CN(C)C1CCCCC1
IC50 [9]: 10.8 µM (not active) | IC50 (Coagulation factor XII): > 50 µM (inactive)

O=C(CCN1C(=O)/C(=C/c2ccccc2F)SC1=S)NC1C=CS(=O)(=O)C1 (stereo not given)
IC50 [10]: > 50 µM (inactive) | IC50 [11]: 2.87 µM (active)

COC/C=C/C1=CC2=CC(=O)C(C)(OC(=O)CCC(=O)OC)C(=O)C2=CO1 (stereo not given)
EC50 [12]: 17 µM (active) | IC50 [10]: 7.43 µM (active) | IC50 [11]: > 56.8 µM (not active) | IC50 (Large T antigen): > 100 µM (active) | EC50 [13]: 22.1 µM (active)

Cn1c(NCc2ccco2)nc2c1c(=O)n(Cc1ccc(Br)cc1)c(=O)n2C
IC50 [9]: 2.84 µM (not active)
